# Data reported in PMC11513854, “De novo GTP synthesis is a metabolic vulnerability for the interception of brain metastases” (Cell Reports Medicine, 2024).
# Assays:
# [1] = tested on: de novo GTP synthesis pathway; assay: LC-MS metabolomics profiling; assay type: cell-based, human; details: IC80, 6 h; for GDP and GTP levels: BT478, BT530; for AICAR levels: b56: accumulates in only some conditions
# Procedure: Metabolites were extracted with a solution of cold acetonitrile/methanol/water (2:2:1) from the cell pellets and protein precipitation was performed by three cycles of freeze/thawing and sonication. The LC-MS metabolomics analysis was performed as previously described.[75] Briefly, a UHPLC-MS system consisting of an Agilent 6550 qToF coupled to an Agilent 1290 binary pump UHPLC system was used. The source parameters were as follows: Gas temperature, 150 °C at 14 L/min and 45 psig; Sheath gas temperature, 325 °C at 12 L/min; Capillary and nozzle voltages were set to −2.0 kV iFunnel conditions were changed from default to-30 V DC, High pressure funnel drop −100 V and RF voltage of 110 V, low pressure funnel drop −50 V and RF voltage of 60 V. Chromatographic separation was achieved by ion-paired chromatography. In brief, […] of each sample was injected onto Agilent ZORBAX Extend-C18 (150 mm 3 2.1 mm i.d.; 1.8 mm) column using tributylamine (TBA) as an ion paring agent (solvent A: 3% methanol, 97% water 10 mM TBA, 15 mM Acetic acid, solvent B: 100% methanol). The linear gradient employed was as follows: 0–2.5 min 99% A, 2.5–7.5 min decrease to 80% A, 7.5–13 min to 55% B and finally 13–15 min to 99% B and held for 1 min. The column was re-generated for 2 min at 1% B. The flow rate was set to […]. The column temperature was maintained at 25°C. Skyline was used for data processing of metabolites in our library of standards using known retention times and MS/MS spectra. Integrated peak areas for the metabolites was exported for further statistical and metabolite enrichment analysis by using online MetaboAnalyst (https://www.metaboanalyst.ca/).
# lung-BMIC line (BT478) = assay: Dose-response assay, PrestoBlue; assay type: cell-based, human; details: for IC50: Homo sapiens, BT478, 72-h treatment, PrestoBlue, N/A, not applicable, read-out: Lung-BM IC50
# Procedure: For preliminary drug screening, drugs were plated at a concentration of 10 μM in a 96-well plate, in triplicate at a density of 1000 cells/well, and incubated at 37°C with a humidified atmosphere of 5% CO2 for three days. Vehicle controls for cell death are used in each functional experiment. Following treatment, PrestoBlue (20 μL, Invitrogen), a resazurin-based cell viability reagent and fluorescence indicator of cell metabolism, was added to each well to estimate proliferation approximately 2 h prior to measuring fluorescence intensity via FLUOstar Omega Fluorescence 556 Microplate reader (BMG LABTECH) at an excitation and emission wavelength of 540 nm and 590 nm, respectively. Results were analyzed using Omega analysis software.
# Dose-response assays were conducted using the same protocol apart from drugs being plated using 2-fold serial dilutions (20 μM - 39 nM) as previously described.[66] The half maximal inhibitory concentration (IC50) is determined by plotting percent cell viability by the logarithmic concentration of drug. IC80 concentrations will be used for subsequent functional assays (cell proliferation, sphere formation), as determined by the following formula: ICF=100−F/F^1/H×IC50 where F = fraction of maximal response and H = hill slope.
# lung-BMICs = assay: Intracranial injection of lung-BMICs, daily oral gavage treatment; assay type: in vivo, mice; details: 100 mg/kg daily oral gavage from 24 h after injection; log rank n.s. [MPA], p = 0.0005 [Compound 3]
# Procedure: The cells were injected intracranially to ensure that any survival benefit would be due to the compounds crossing the BBB and targeting BMICs in the brain.
# All experimental procedures involving animal work has been reviewed and approved by McMaster University Animal Research Ethics Board. Non-obese diabetic-severe combined immunodeficient IL2r γ ^null (NSG) mice are used for all experiments. Equal numbers of male and female mice were used for all experiments. Healthy mice were 6–8 weeks at time of use. Mice are anesthetized by gas anesthesia using isoflurane (4% induction, 2.5% maintenance) before procedure. Cells were engineered to express firefly luciferase and were injected intracardially, orthotopically, or intracranially as previously described.[13]^,[14]^,[63]^,[64]^,[65] […] Mice are monitored weekly for signs of illness until endpoint.
# [2] = Brain homogenate binding, equilibrium dialysis; assay type: in vitro ADME, mouse; details: 2 μM, 4 h, 37°C
# Procedure: The samples were applied to a dialysis well plate and sealed with dialysis membrane. Dialysis buffer (100 mM sodium phosphate pH 7.4, 150 mM NaCl) was applied to opposite side of the membrane (receiver well of the plate), and samples were incubated at 37°C with 5% CO2 for 4 h. Following completion of incubation period, samples were recovered from each side of the dialysis membrane and processed by protein precipitation, and analysis by LC-MS/MS for compound concentration. A corresponding set of samples was also prepared and stop solution (acetonitrile containing 200 ng/mL tolbutamide and 200 ng/mL labetalol) was immediately added, and samples were obtained from each side of the dialysis plate for mass spectrometric analysis.
# IMPDH KO BT478 cells = assay: Dose-response assays using AAVS1 and IMPDH KO cells; assay type: cell-based, human; details: IMPDH1 and IMPDH2 knocked out
# From the text: In parallel, we knocked out the safe-harbor locus, AAVS1, as a control cell line. Knockouts were validated by western blot (Figures 5E and S4D). Loss of IMPDH led to tumor cell death within 1 week of knockout (Figure 5F).
# Guide RNAs (gRNAs) targeting AAVS1 (5′-[…]-3′) and IMPDH1 (5′- […]-3′) and IMPDH2 (5′-a[…]-3′) were obtained from TKOv3[76] and cloned into a single-gRNA lentiCRISPRv2 construct (Addgene 52961). Sequences were verified using Sanger sequencing. Each plasmid was packaged independently into lentivirus using second-generation packaging constructs as described previously.[77] BMICs were infected with lentivirus containing single-gRNA lentiCRISPRv2 constructs targeting AAVS1 or IMPDH1 or IMPDH2 (three gRNAs). Twenty-four hours post-infection, virus-containing media was replaced with fresh media containing puromycin (1–2 μg/mL) (ThermoFisher, Cat#A1113803) for 48–72 h. The knockout efficiency was validated by Western Blotting for evaluation of IMPDH protein expression.
smiles,measurement,setting,value
COc1c(C)c2c(c(O)c1C/C=C(\C)CCC(=O)OCCN1CCCC1)C(=O)OC2 [Compound 3],GDP and GTP levels,[1],significantly reduced
same,levels of dihydroorotic acid,[1],did not influence
same,AICAR levels,[1],accumulate
same,selectivity for BMICs compared to normal brain cells,"lung-BMIC line (BT478); BT478, MDA-MB-231 Br, BT673 vs neural stem cells, 72 h",retained MPA’s therapeutic window
same,IC50,lung-BMIC line (BT478),15.3 µM
same,survival advantage,lung-BMICs,significant survival advantage
same,% Bound,[2],Not Recover ed
same,% Unbound,[2],Not Recover ed
same,mass of compound following completion of the brain homogenate assay,[2],could not be detected
same,anti-BMIC activity following IMPDH knockout,IMPDH KO BT478 cells,lose their anti-BMIC activity
"COc1c(C)c2c(c(O)c1C/C=C(\C)CCC(=O)O)C(=O)OC2 [MPA, Mycophenolic acid]",GDP and GTP levels,[1],significantly reduced
same,levels of dihydroorotic acid,[1],did not influence
same,AICAR levels,[1],accumulate
same,IC50,lung-BMIC line (BT478),3.61 µM
same,survival advantage,lung-BMICs,no survival advantage
same,% Unbound,[2],34.1%
same,anti-BMIC activity following IMPDH knockout,IMPDH KO BT478 cells,lose their anti-BMIC activity
